Data on 15 compounds can be found in patent US9765087B2, “Benzimidazole derivatives” (ENANTA PHARMACEUTICALS, INC., priority 2009, dated 2017).

Each structure is given as a SMILES string.

In the first test the test system is HCV 1a genotype replicon. Put plainly: HCV replicon assay (qRT-PCR or luciferase), genotype 1a. Type of test: cell-based. Particulars: Hepatitis C virus, Table 12, numeric values, read-out: 1a EC50. The procedure:
HCV replicon cell lines (kindly provided by R. Bartenschlager) isolated from colonies as described by Lohman et. al. (Lohman et al. (1999) Science 285: 110-113, expressly incorporated by reference in its entirety) and used for all experiments. The HCV replicon has the nucleic acid sequence set forth in EMBL Accession No.: AJ242651, the coding sequence of which is from nucleotides 1801 to 8406.
These cell lines were maintained at 37° C., 5% CO2, 100% relative humidity in DMEM (Cat#11965-084, Invitrogen), with 10% fetal calf serum (“FCS”, Invitrogen), 1% non-essential amino acids (Invitrogen), 1% of Glutamax (Invitrogen), 1% of 100× penicillin/streptomycin (Cat#15140-122, Invitrogen) and Geneticin (Cat#10131-027, Invitrogen) at 0.75 mg/ml or 0.5 mg/ml for 11-7 and Huh-luc/neo-ET cells, respectively.
EC50 values of single agent compounds and combinations were determined by HCV RNA detection using quantitative RT-PCR, according to the manufacturer's instructions, with a TAQMAN® One-Step RT-PCR Master Mix Reagents Kit (Cat#AB 4309169, Applied Biosystems) on an ABI Model 7500 thermocycler. The TaqMan primers used for detecting and quantifying HCV RNA were obtained from Integrated DNA Technologies. HCV RNA was normalized to GAPDH RNA levels in drug-treated cells, which is detected and quantified using the Human GAPDH Endogenous Control Mix (Applied Biosystems, AB 4310884E). Total cellular RNA is purified from 96-well plates using the RNAqueous 96 kit (Ambion, Cat# AM1812). Chemical agent cytotoxicity is evaluated using an MTS assay according to the manufacturer's directions (Promega).
Since clinical drug resistance often develops in viral infections following single agent therapies, there is a need to assess the additive, antagonistic, or synergistic properties of combination therapies. We used the HCV replicon system to assess the potential use of the compound of the present invention or in combination therapies with Interferon alpha, cyclosporine analogs and inhibitors targeting other HCV proteins. The acute effects of a single or combinations of drugs are studied in the “Huh-luc/neo-ET” replicon with each chemical agent titrated in an X or Y direction in a 6 point two-fold dilution curve centered around the EC50 of each drug. Briefly, replicon cells are seeded at 7,000 cells per well in 90 ul DMEM (without phenol red, Invitrogen Cat.#31053-036) per well with 10% FCS, 1% non-essential amino acids, 1% of Glutamax and 1% of 100× penicillin/streptomycin and incubated overnight at 37° C., 5% CO2, 100% relative humidity. 16-20 h after seeding cells, test compounds previously solubilized and titrated in dimethyl sulfoxide (“DMSO”) from each X plate and Y plate are diluted 1:100 in DMEM (without phenol red, Invitrogen Cat.#31053-036) with 10% FCS, 1% non-essential amino acids, 1% of Glutamax and 1% of 100× penicillin/streptomycin and added directly to the 96-well plate containing cells and growth medium at a 1:10 dilution for a final dilution of compound and DMSO of 1:1000 ([…] final concentration). Drug treated cells are incubated at 37° C., 5% CO2, 100% relative humidity for 72 hours before performing a luciferase assay using 100 ul per well BriteLite Plus (Perkin Elmer) according to the manufacturer's instructions. Data analysis utilizes the method published by Prichard and Shipman (Antiviral Research, 1990. 14:181-205). Using this method, the combination data are analyzed for antagonistic, additive, or synergistic combination effects across the entire combination surface created by the diluted compounds in combination.
The compounds of the present invention can be effective against the HCV 1b genotype. It should also be understood that the compounds of the present invention can inhibit multiple genotypes of HCV. In one embodiment compound of the present invention are active against the 1a, 1b, 2a, 2b, 3a, 4a, and 5a genotypes. […] EC50 ranges against HCV 1b and 1a are as follows: A>10 nM; B1-10 nM; C<1 nM.
For orientation: A replicon is a self-replicating genome or part of one, used to study replication in cells.
Broadly, the EC50 is the concentration needed to bring the measured effect to its halfway point. For `COC(=O)N[C@H](C(=O)N1CC2(CC2)C[C@H]1c1nc(-c2ccc(C#Cc3ccc4[nH]c([C@@H]5CC6(CC6)CN5C(=O)[C@@H](NC(=O)OC)C(C)C)nc4c3)cc2)c(-c2ccccc2)[nH]1)C(C)C` [Example 661], the EC50 is 0.369 nM.

Turning to `COC(=O)N[C@H](C(=O)N1CC2(CC2)C[C@H]1c1nc2ccc(C#Cc3ccc(-c4cnc([C@@H]5CCCN5C(=O)[C@H](NC(=O)OC)c5cccs5)[nH]4)cc3)cc2[nH]1)C(C)C` [Example 663], the EC50 was 0.295 nM.

The same test, now with this note: Hepatitis C virus, Table 12, range class, read-out: 1a EC50 Range.
For the compound `CC[C@@H](C)[C@H](NC(=O)OC)C(=O)N1CC2(CC2)C[C@H]1c1nc2ccc(C#Cc3ccc(-c4cnc([C@@H]5CC6(CC6)CN5C(=O)[C@@H](NC(=O)OC)C(C)C)[nH]4)cc3)cc2[nH]1` [Example 656], the EC50 is less than 1 nM.

For the compound `COC(=O)N[C@H](C(=O)N1CC2(CC2)C[C@H]1c1nc(-c2ccc(C#Cc3ccc4[nH]c([C@@H]5CC6(CC6)CN5C(=O)[C@@H](NC(=O)OC)C(C)C)nc4c3)cc2)c(Br)[nH]1)C(C)C` [Example 657], the EC50 was less than 1 nM.

Regarding `COC(=O)N[C@H](C(=O)N1CC2(CC2)C[C@H]1c1nc2ccc(C#Cc3ccc(-c4cnc([C@@H]5CC6(CC6)CN5C(=O)[C@@H](NC(=O)OC)C5CCOCC5)[nH]4)cc3)cc2[nH]1)C(C)C` [Example 658], the EC50 is less than 1 nM.

As to `COC(=O)N[C@H](C(=O)N1CC2(CC2)C[C@H]1c1nc2ccc(C#Cc3ccc(-c4cnc([C@@H]5C[C@H]6C[C@H]6N5C(=O)[C@H](NC(=O)OC)c5ccccc5)[nH]4)cc3)cc2[nH]1)C(C)C` [Example 659], the EC50 was less than 1 nM.

With `COC(=O)N[C@H](C(=O)N1CC2(CC2)C[C@H]1c1nc(-c2ccc(C#Cc3ccc4[nH]c([C@@H]5CC6(CC6)CN5C(=O)[C@@H](NC(=O)OC)C(C)C)nc4c3)cc2)c(F)[nH]1)C(C)C` [Example 660], the EC50 is less than 1 nM.

With `COC(=O)N[C@H](C(=O)N1CC2(CC2)C[C@H]1c1nc(-c2cccnc2)c(-c2ccc(C#Cc3ccc4nc([C@@H]5CC6(CC6)CN5C(=O)[C@@H](NC(=O)OC)C(C)C)[nH]c4c3)cc2)[nH]1)C(C)C` [Example 662], the EC50 is less than 1 nM.

As to `COC(=O)N[C@H](C(=O)N1CC2(CC2)C[C@H]1c1nc2ccc(C#Cc3ccc(-c4cnc([C@@H]5CCCN5C(=O)[C@H](NC(=O)OC)c5ccc(F)cc5)[nH]4)cc3)cc2[nH]1)C(C)C` [Example 664], the EC50 was less than 1 nM.

On to `COC(=O)N[C@H](C(=O)N1CC2(CC2)C[C@H]1c1nc2ccc(C#Cc3ccc(-c4cnc([C@@H]5CCCN5C(=O)[C@H](NC(=O)OC)c5cccc(Cl)c5)[nH]4)cc3)cc2[nH]1)C(C)C` [Example 665], for which the concentration for a half-maximal effect (EC50) was less than 1 nM.

In the case of `COC(=O)N[C@H](C(=O)N1CC2(CC2)C[C@H]1c1ncc(-c2ccc(C#Cc3ccc4nc([C@@H]5CC6(CC6)CN5C(=O)[C@H](NC(=O)OC)C5CCCCC5)[nH]c4c3)cc2)[nH]1)C(C)C` [Example 667], the EC50 lay in the range of 1 to 10 nM.

Turning to `COC(=O)N[C@H](C(=O)N1CC2(CC2)C[C@H]1c1ncc(-c2ccc(C#Cc3ccc4nc([C@@H]5CC6(CC6)CN5C(=O)[C@@H](NC(=O)OC)[C@@H](C)c5ccccc5)[nH]c4c3)cc2)[nH]1)C(C)C` [Example 668], the 50% effective concentration (EC50) is less than 1 nM.

In the case of `COC(=O)N[C@H](C(=O)N1CC2(CC2)C[C@H]1c1ncc(-c2ccc(C#Cc3ccc4nc([C@@H]5CC6(CC6)CN5C(=O)[C@H](NC(=O)OC(C)(C)C)[C@H](C)c5ccccc5)[nH]c4c3)cc2)[nH]1)C(C)C` [Example 669], the EC50 is greater than 10 nM.

Turning to `COCC(COC)[C@H](NC(=O)OC)C(=O)N1CC2(CC2)C[C@H]1c1nc2ccc(C#Cc3ccc(-c4cnc([C@@H]5CC6(CC6)CN5C(=O)[C@@H](NC(=O)OC)C(C)C)[nH]4)cc3)cc2[nH]1` [Example 670], the EC50 is less than 1 nM.

For the compound `COC(=O)N[C@H](C(=O)N1CC2(CC2)C[C@H]1c1nc2ccc(C#Cc3ccc(-c4cnc([C@@H]5C[C@@H](C)CN5C(=O)[C@H](NC(=O)OC)c5ccccc5)[nH]4)cc3)cc2[nH]1)C(C)C` [Example 671], the EC50 was less than 1 nM.
